# Measurements taken from patent US20200085776A1, “Methods of Reducing C-Reactive Protein and/or Treating Cardiovascular Disease” (CARDAX, INC., priority 2018, published 2020).
# System: C-reactive protein (CRP)
# Experiment: CRP (hs-CRP) in blood, CHASE clinical study
# Format: in vivo, human
# Details: Group X 12 mg BID
# From the text: This is a two-part study comprising Part I and Part II. Following screening, Part I consists of a randomized, double-blind, placebo controlled dosing period of up to 12 weeks. The study shall be conducted at one or more study sites in Hawaii. Approximately 360 subjects qualified after completion of screening procedures shall be randomized in a 1:1:1 ratio to one of three treatment groups, per Table 1.
# The Part I 12-week double-blind dosing period commences with V2, including randomization and first dose of study product, and continues with study visits at Week 1-2 (V3), Week 4 (V4), Week 8 (V5), and Week 12 (V6). V6 procedures will conclude Part I.
# Blood shall be obtained at each visit for CRP. The screening specimen shall be processed at the local lab and reported to the study staff for eligibility determination; CRP samples at V7 and V8 may also be processed locally and reported directly to study staff. Samples for CRP from V2 through V6 may be batched, processed, and reported as specified in the Laboratory Manual.
# At each these visits, blood was obtained for measurement of CRP, among other parameters. Table 7A provides a summary of the CRP measurements (mg/L) at each visit and Table 7B provides a summary of the differences of CRP levels between V2 and V6.
# [1] = V1 screening, subjects with baseline level greater than 2.0
# [2] = V2 baseline pre-dose, all subjects
# [3] = V2 baseline pre-dose, subjects not taking a hypertension agent
# [4] = V2 baseline pre-dose, subjects not taking any cardiac therapeutic agent
# [5] = V2 baseline pre-dose, subjects not taking statins
# [6] = V2 baseline pre-dose, subjects taking an anti-diabetic agent
# [7] = V2 baseline pre-dose, subjects with CAD
# [8] = V2 baseline pre-dose, subjects with DM2, hypertension and hyperlipidemia but not CAD
# [9] = V2 baseline pre-dose, subjects with Diabetes Mellitus Type II
# [10] = V2 baseline pre-dose, subjects with baseline level greater than 2.0
# [11] = V2 baseline pre-dose, subjects with hyperlipidemia
# [12] = V3 Week 1-2, subjects with baseline level greater than 2.0
# [13] = V4 Week 4, subjects with baseline level greater than 2.0
# [14] = V5 Week 8, subjects with baseline level greater than 2.0
# [15] = V6 Week 12, subjects not taking a hypertension agent
# [16] = V6 Week 12, subjects not taking any cardiac therapeutic agent
# [17] = V6 Week 12, subjects not taking statins
# [18] = V6 Week 12, subjects taking an anti-diabetic agent
smiles,measurement,setting,value
"CC1=C(/C=C/C(C)=C/C=C/C(C)=C/C=C/C=C(C)/C=C/C=C(C)/C=C/C2=C(C)C(=O)C(O)CC2(C)C)C(C)(C)CC(O)C1=O (stereo not drawn) [Astaxanthin, astaxanthin]",CRP Max,"V1 screening, all subjects",15.96 mg/L
same,CRP Mean (SD),"V1 screening, all subjects",5.43 (3.91) mg/L
same,CRP Median,"V1 screening, all subjects",3.95 mg/L
same,CRP Min,"V1 screening, all subjects",2.87 mg/L
same,CRP Max,[1],15.96 mg/L
same,CRP Mean (SD),[1],5.64 (4.06) mg/L
same,CRP Median,[1],3.98 mg/L
same,CRP Min,[1],2.87 mg/L
same,CRP Max,[2],17.86 mg/L
same,CRP Mean (SD),[2],5.52 (4.80) mg/L
same,CRP Median,[2],3.64 mg/L
same,CRP Min,[2],1.39 mg/L
same,CRP Max,[3],"3.64, 3.64 mg/L"
same,CRP Mean (SD),[3],3.64 mg/L
same,CRP Median,[3],3.64 mg/L
same,CRP Min,[3],"3.64, 3.64 mg/L"
same,CRP Max,[4],17.86 mg/L
same,CRP Mean (SD),[4],6.81 (6.86) mg/L
same,CRP Median,[4],3.64 mg/L
same,CRP Min,[4],1.39 mg/L
same,CRP Max,[5],8.61 mg/L
same,CRP Mean (SD),[5],4.04 (2.48) mg/L
same,CRP Median,[5],3.12 mg/L
same,CRP Min,[5],2.16 mg/L
same,CRP Max,[6],17.86 mg/L
same,CRP Mean (SD),[6],7.52 (5.87) mg/L
same,CRP Median,[6],6.78 mg/L
same,CRP Min,[6],1.39 mg/L
same,CRP Max,[7],"8.61, 8.61 mg/L"
same,CRP Mean (SD),[7],8.61 mg/L
same,CRP Median,[7],8.61 mg/L
same,CRP Min,[7],"8.61, 8.61 mg/L"
same,CRP Max,[8],17.86 mg/L
same,CRP Mean (SD),[8],7.30 (6.54) mg/L
same,CRP Median,[8],4.94 mg/L
same,CRP Min,[8],1.39 mg/L
same,CRP Max,[9],17.86 mg/L
same,CRP Mean (SD),[9],7.52 (5.87) mg/L
same,CRP Median,[9],6.78 mg/L
same,CRP Min,[9],1.39 mg/L
same,CRP Max,[10],17.86 mg/L
same,CRP Mean (SD),[10],5.93 (4.85) mg/L
same,CRP Median,[10],4.29 mg/L
same,CRP Min,[10],2.16 mg/L
same,CRP Max,[11],17.86 mg/L
same,CRP Mean (SD),[11],6.71 (5.19) mg/L
same,CRP Median,[11],4.95 mg/L
same,CRP Min,[11],1.39 mg/L
same,CRP Max,"V3 Week 1-2, all subjects",6.72 mg/L
same,CRP Mean (SD),"V3 Week 1-2, all subjects",3.72 (2.06) mg/L
same,CRP Median,"V3 Week 1-2, all subjects",3.44 mg/L
same,CRP Min,"V3 Week 1-2, all subjects",0.44 mg/L
same,CRP Max,[12],6.72 mg/L
same,CRP Mean (SD),[12],3.97 (1.97) mg/L
same,CRP Median,[12],3.55 mg/L
same,CRP Min,[12],0.44 mg/L
same,CRP Max,"V4 Week 4, all subjects",15.83 mg/L
same,CRP Mean (SD),"V4 Week 4, all subjects",3.98 (4.24) mg/L
same,CRP Median,"V4 Week 4, all subjects",2.56 mg/L
same,CRP Min,"V4 Week 4, all subjects",0.56 mg/L
same,CRP Max,[13],15.83 mg/L
same,CRP Mean (SD),[13],4.22 (4.39) mg/L
same,CRP Median,[13],3.27 mg/L
same,CRP Min,[13],0.56 mg/L
same,CRP Max,"V5 Week 8, all subjects",18.24 mg/L
same,CRP Mean (SD),"V5 Week 8, all subjects",4.90 (4.99) mg/L
same,CRP Median,"V5 Week 8, all subjects",3.71 mg/L
same,CRP Min,"V5 Week 8, all subjects",1.06 mg/L
same,CRP Max,[14],18.24 mg/L
same,CRP Mean (SD),[14],5.29 (5.09) mg/L
same,CRP Median,[14],4.08 mg/L
same,CRP Min,[14],1.06 mg/L
same,CRP Max,"V6 Week 12, all subjects",11.04 mg/L
same,CRP Mean (SD),"V6 Week 12, all subjects",3.45 (3.09) mg/L
same,CRP Median,"V6 Week 12, all subjects",2.70 mg/L
same,CRP Min,"V6 Week 12, all subjects",0.22 mg/L
same,CRP Max,[15],"2.70, 2.70 mg/L"
same,CRP Mean (SD),[15],2.70 mg/L
same,CRP Median,[15],2.70 mg/L
same,CRP Min,[15],"2.70, 2.70 mg/L"
same,CRP Max,[16],6.80 mg/L
same,CRP Mean (SD),[16],2.53 (2.56) mg/L
same,CRP Median,[16],1.91 mg/L
same,CRP Min,[16],0.22 mg/L
same,CRP Max,[17],11.04 mg/L
same,CRP Mean (SD),[17],3.86 (3.78) mg/L
same,CRP Median,[17],2.71 mg/L
same,CRP Min,[17],0.22 mg/L
same,CRP Max,[18],6.80 mg/L
same,CRP Mean (SD),[18],2.91 (2.07) mg/L
same,CRP Median,[18],2.32 mg/L
same,CRP Min,[18],1.02 mg/L
same,CRP Max,"V6 Week 12, subjects with CAD","2.72, 2.72 mg/L"
same,CRP Mean (SD),"V6 Week 12, subjects with CAD",2.72 mg/L
same,CRP Median,"V6 Week 12, subjects with CAD",2.72 mg/L
same,CRP Min,"V6 Week 12, subjects with CAD","2.72, 2.72 mg/L"
